This note sets out measurements from patent US5476850A, “Amino-substituted benzenesulfonylureas and -thioureas and their use as pharmaceuticals” (Hoechst Aktiengesellschaft, priority 1993, dated 1995).

Assay [1] relates to RINm5F cells. The experiment in a line: Membrane potential on isolated β-cells (whole cell patch clamp, RINm5F cells). Format: cell-based. The conditions noted are these: compound 10^-6 mol per liter; diazoxide 100 μmol in bath; 34°±1° C.; blank cell potential -76. The source says: (2) Membrane potential on isolated β-cells:
The mechanism of action of the hypoglycemic sulfonylureas is elucidated in rough terms. The target organ is the β-cells of the pancreas where increased secretion of the hypoglycemic hormone insulin occurs. The release of insulin is controlled by means of the cell membrane potential. Glibenclamide causes a depolarization of the cell membrane, which promotes insulin release via an increased influx of calcium ions. The extent of this depolarization of the cell membrane ΔU was determined on RINm5F cells, a pancreas tumor cell line, for a few of the compounds according to the invention. The potency of a compound in this model predicts the extent of the hypoglycemic potential of this compound.
RINm5F cells were cultured at 37° C. in RPMI 1640 culture medium (Flow), to which 11 mmol of glucose, 10% (vol/vol) fetal calf-serum, 2 mmol of glutamine and 50 μg/ml of gentamycin were added. […]
Isolated RINm5F cells were transferred to a Plexiglas chamber on an inverted microscope which is equipped with a differential interference contrast optical system. […] In this whole cell configuration, the cell potential was recorded with the aid of a patch clamp amplifier (L/M EPC 7) and measured by applying a voltage ramp to the whole cell current. […]

The test system of assay [2] is papillary muscle of the guinea-pig. Briefly: Action potential duration on the papillary muscle of the guinea-pig (microelectrode technique; APD shortened by 2-deoxyglucose or rilmakalim). Format: cell-based. The conditions noted are these: test substance 2.2·10^-5 mol per liter, 30 minutes after addition, control <40 ms; for APD95 -rilmakalim: action potential reduced by 1 μM rilmakalim (Hoe 234); for APD95 -DEO: action potential reduced by 2-deoxyglucose (DEO). The source says: (1) Action potential duration on the papillary muscle of the guinea-pig:
ATP deficiency states, as are observed during ischemia in the cardiac muscle cell, lead to a reduction of the action potential duration. They count as one of the causes of so-called reentry arrhythmias, which can cause sudden heart death. The opening of ATP-sensitive K channels by the reduction of ATP counts as causal here.
To measure the action potential, a standard microelectrode technique is employed. For this, guinea-pigs of both sexes are killed by a blow to the head, the hearts are removed, and the papillary muscles are separated out and suspended in an organ bath. The organ bath is irrigated with Ringer solution (0.9% NaCl, 0.048% KCl, 0,024% CaCl2, 0.02% NaHCO3 and 0.1% glucose) and aerated with a mixture of 95% oxygen and 5% carbon dioxide at a temperature of 36° C. The muscle is stimulated by means of an electrode using square-wave impulses of 1 V and 1 ms duration and a frequency of 2 Hz. The action potential is derived and recorded by means of a glass microelectrode inserted intracellularly, which is filled with […] KCl solution. The substances to be tested were added to the Ringer solution in a concentration of 2.2·10^-5 mol per liter. The action potential is shown amplified on an oscilloscope using an amplifier from Hugo Sachs. The duration of the action potential is determined at a degree of repolarization of 95% (APD95). Action potential reductions are produced either by addition of a 1 μM solution of the potassium channel opener rilmakalim (Hoe 234) [W. Linz, E. Klaus, U. Albus, R. H. A. Becker, D. Mania, H. C. Englert, B. A. Schokens, Arzneimittelforschung/Drug Research, Volume 42 (II), 1992, pp. 1180 to 1185] or by addition of 2-deoxyglucose (DEO). In experimental physiology, ATP deficiency states are produced by 2-deoxyglucose by blockade of glucose metabolism. The action potential-reducing effect of these substances was prevented or reduced by the simultaneous addition of the test substances. Test substances were added to the bath solution as stock solutions in propanediol. The values indicated relate to measurements 30 minutes after addition. The APD95 in the presence of […] or rilmakalim and in the absence of the test substance counts as the control.

Consider `CNC(=S)NS(=O)(=O)c1cc(CCNC(=O)c2cc(Cl)ccc2OC)ccc1N1CCCCC1` [Example 2, 2-Methoxy-5-chloro-N-{5-[1-sulfonylamino-N-(methylaminothiocarbonyl)-2-(1-piperidyl)phenyl]ethyl}benzamide], for which the “ΔU (depolarization of the cell membrane)” value in assay [1] is on record as 19 mv. Further, in assay [2], the APD95 -rilmakalim worked out at 153 ± 15 ms and the “APD95 -DEO” value worked out at 105 ± 11 ms.

Take `CNC(=S)NS(=O)(=O)c1cc(CCNC(=O)c2cc(Cl)ccc2OC)ccc1N1CCOCC1` [Example 1, 2-Methoxy-5-chloro-N-{5-[1-sulfonylamino-N-(methylaminothiocarbonyl)-2-(4-morpholino)phenyl]ethyl}benzamide]: the “ΔU (depolarization of the cell membrane)” value in assay [1] is given as 14 mv. Also, in assay [2], the APD95 -rilmakalim came out at 121 ± 14 ms and the “APD95 -DEO” value was determined as 110 ms.
